{
  "source": "patent US9801908B2",
  "about": "“Treatment for chitin-containing microorganisms” (BENCHMARK ANIMAL HEALTH LIMITED, priority 2013, dated 2017)",
  "key": {"[1]": {"test_system": "Atlantic salmon eyed eggs", "settings": "in vivo"}, "[2]": {"test_system": "Saprolegnia spores", "test": "Germination and colonization of Saprolegnia spores on sesame seeds", "type": "cell-based, Saprolegnia parasitica", "set-up": "key to grade of germination and colonization of Saprolegnia spores on sesame seeds: Grade 0: no germination no growing mycelia on the sesame seeds; Grade 1: germinating spores no growing mycelia on the sesame seeds; Grade 2: germinating spores very few growing mycelia on the sesame seeds; Grade 3: germinating spores profuse growing mycelia on the sesame seeds", "settings": "for grade of germination and colonization of Saprolegnia spores on sesame seeds: 48 hours incubation", "procedure": "BA was diluted to desired concentration in Sterilized Aquarium Water (SAW). […] Saprolegnia zoospores were produced according to the method described previously by Stueland et al. […] Sterilized aquarium water (SAW) was used as a non-treated control and bronopol (Pyceze Vet.® 500 g bronopol/L) was used as a positive control. Each BA concentration and controls were tested in triplicates and incubated at 20° C. 24 hours later, plates were examined microscopically."}, "[3]": {"test_system": "Saprolegnia spores", "settings": "BA 0.5 g/L continuous, yolk sac fry, natural outbreak", "excerpt": "The safety of continuous exposure of salmon fry to a low concentration of BA (0.5 g/L) was also investigated to understand what extent BA will protect Atlantic salmon fry from becoming infected by Saprolegnia spores during a natural outbreak of saprolegniosis in the aquarium."}, "[4]": {"test_system": "Saprolegnia zoosporangia"}, "[5]": {"test_system": "Saprolegnia spores (S. diclina VIO 2739, S. parasitica VIO 2741, aquarium water)", "settings": "BA 1-4 g/L, 4 hours/day, 14 days", "description": "The ability of BA to protect dead eggs from becoming infected with Saprolegnia spores was investigated. The rationale is that dead eggs may be the first to get infected under natural conditions and act as a source of infection for live eggs. Combined treatment of BA and PA was also tested.\nFive egg groups were used, each group divided equally into 3 smaller sub-groups. 25 live eggs plus 5 dead ones were placed in each of the sub-groups (90 eggs per group). […] In the groups, eggs were supplied with continuous slow water flow of 1 L/min. The aquarium water at the facilities of the Norwegian Veterinary Institute/Norwegian School of Veterinary Science contains Saprolegnia zoospores and was used as source of infection. […] Treatment with BA was carried out as follows. The water flow was stopped and each group, except the non-treated control group, was treated with BA at concentrations of 1, 2, 3, and 4 g/L. The treatment period was 4 hours/day after which water flow was resumed. Dead eggs were inspected daily over 14 days for their colonization with Saprolegnia spores and the presence of growing hypha. Number of dead eggs per group and hatching rates were recorded."}, "[6]": {"test_system": "Saprolegnia sp.", "settings": "4 h once a day", "description": "The experimental design was as described in experiment 1 with the same number of eggs per replicate (N=27±2) and the number of infected eggs introduced per replicate (3 per 27 eggs). The difference was that the eggs were exposed to higher BA concentrations (1, 2, 3, 4 g/L) for 4 h once a day over the course of the experiment which lasted for 14 days in total. After 4 h of treatment the flow of aquarium water was resumed. The same treatment was applied 24 h later and every day up to 14 days. The time between treatments was the same throughout the experiment. The number of dead eggs, presence or absence of infection and hatching rates were recorded over the duration of the experiment.\nInfected dead eggs that were used as source of infection in the BA treated groups and the non-treated control were examined microscopically to observe the effect of BA treatment on the growing mycelia."}, "[7]": {"test_system": "Saprolegnia hyphae/mycelium", "description": "The plates were observed microscopically to confirm the attachment of the spores to the sesame seeds and the presence of the early growing mycelia. BA was added at 12 h post infection of the sesame seeds at the same concentrations mentioned above to all tested plates except controls. Plates were incubated further at 20° C. SAW was used as non-treated control and bronopol as positive control. Plates were inspected microscopically after 24 h for advanced mycelial growth."}, "[8]": {"test_system": "Saprolegnia spores and zoosporangia", "description": "At indicated time points BA was replaced with SAW. The ability of treated spores to germinate and colonize sesame seeds was recorded 24 h following the treatment removal. Treated zoosporangia were also examined for their ability to release spore. Spores and zoosporangia in SAW were used as a non-treated control. Results were confirmed with fluorescent microscopy using SYTO 9 dye (Invitrogen®) 5 mM solution in DMSO."}, "[9]": {"settings": "treated 96 h in BA, then 24 h in SAW"}},
  "note": "Like-named read-outs stand apart in the source and are kept apart here.",
  "data": [
    {"smiles": "O=[N+]([O-])C(Br)(CO)CO", "note": "[bronopol, reference compound]", "values": [
      {"measurement": "mortality of eggs", "setting": "[1]; Atlantic salmon, 2 h", "result": 100, "unit": "%"},
      {"measurement": "grade of germination and colonization of Saprolegnia spores on sesame seeds", "setting": "[2]; positive control (Pyceze Vet. 500 g bronopol/L)", "result": "Grade 0"}
    ]},
    {"smiles": "OB(O)O", "note": "[boric acid]", "values": [
      {"measurement": "fry mortality rates compared to non-treated control", "setting": "[3]", "result": "Significant reduction"},
      {"measurement": "production and release of zoospores from young zoosporangia", "setting": "[4]; 1 g/L BA, 12 and 24 h", "result": "interferes with the production and subsequent release of zoospores"},
      {"measurement": "sign observed in zoosporangia after treatment", "setting": "[4]; 1 g/L BA, 12 and 24 h", "result": "Vacuolation of the entire of zoosporangia"},
      {"measurement": "spore production and release from zoosporangia (FIG. 2 b2)", "setting": "[4]; 24 hours exposure to boric acid", "result": "absence of spore production and release"},
      {"measurement": "attachment between dead and live eggs", "setting": "[5]", "result": "no attachment"},
      {"measurement": "hyphal growth on dead eggs", "setting": "[5]", "result": "No hyphal growth"},
      {"measurement": "impact on hatchability and viability of eggs or fry", "setting": "[1]", "result": "no negative impact"},
      {"measurement": "grade of germination and colonization of Saprolegnia spores on sesame seeds", "setting": "[2]; \"boric acid g/L\" (concentration not given)", "result": "Grade 0"},
      {"measurement": "germination of inoculated Saprolegnia spores", "setting": "[2]; BA 1 g/L and above", "result": "did not germinate"},
      {"measurement": "germination and colonization of sesame seeds by Saprolegnia spores", "setting": "[2]; BA below 0.2 g/L", "result": "germinated and colonized sesame seeds"},
      {"measurement": "growth rate compared to the non-treated control", "setting": "[2]; BA below 0.2 g/L", "result": "slow"},
      {"measurement": "grade of germination and colonization of Saprolegnia spores on sesame seeds", "setting": "[2]; boric acid 0.2-0.4 g/L", "result": "Grade 2"},
      {"measurement": "grade of germination and colonization of Saprolegnia spores on sesame seeds", "setting": "[2]; boric acid 0.5-0.9 g/L", "result": "Grade 1"},
      {"measurement": "grade of germination and colonization of Saprolegnia spores on sesame seeds", "setting": "[2]; boric acid <0.2 g/L", "result": "Grade 3"},
      {"measurement": "hyphal attachment between infected dead and live eggs", "setting": "[6]; BA 1, 2, 3 or 4 g/L, 14 days", "result": "No hyphal attachment"},
      {"measurement": "mycelium on dead eggs used as source of infection", "setting": "[6]; all treated groups, BA 1-4 g/L", "result": "scanty attachment of mycelium"},
      {"measurement": "hyphael growth grade", "setting": "[7]; BA 0.5 g/L and below", "result": "grade 1"},
      {"measurement": "mycelia growth", "setting": "[7]; BA above 0.5 g/L", "result": "no further growth"},
      {"measurement": "spore release of zoosporangia 24 h after exposure terminated", "setting": "[8]; BA 1 g/L for 12 h", "result": "showed spore release"},
      {"measurement": "spore release of zoosporangia 24 h after exposure terminated", "setting": "[8]; BA 1 g/L for 24 h", "result": "showed spore release"},
      {"measurement": "spore release of zoosporangia after exposure terminated", "setting": "[8]; BA 1 g/L for 72 h", "result": "no spore release"},
      {"measurement": "spore release of zoosporangia after exposure terminated", "setting": "[8]; BA 1 g/L for 96 h", "result": "no spore release"},
      {"measurement": "colonization of seeds (FIG. 3c-1)", "setting": "[8]; treated 24 h with BA, then 24 h in SAW", "result": "Thin hyphae can be seen projecting out from seeds"},
      {"measurement": "appearance of zoosporangium (FIG. 3d-2)", "setting": "[8]; [9]", "result": "condensed staining and a thin wall"},
      {"measurement": "colonization of seeds (FIG. 3d)", "setting": "[8]; [9]", "result": "no colonization on seeds"}
    ]}
  ]
}
